Reference: patent EP0081924A1, “Topical compostions for lowering intraocular pressure” (ALCON LABORATORIES, INC., priority 1981, dated 1983)
Counter-ions that a name gives are not always drawn. Like-named read-outs stand apart in the source and are kept apart here.

Assays:
[1] = test system: Intraocular Pressure; assay: Rhesus Monkey - Laser Model, IOP lowering after topical administration; assay type: in vivo, Rhesus monkeys; settings: laser-induced ocular hypertension, peak effect, percentage change in the hypertensioned eye versus the same eye at the same hour the previous day
Procedure: A. Rhesus Monkey - Laser Model
Ocular hypertension was produced in adult Rhesus monkeys (4) via an argon laser photocoagulation of trabecular meshwork in the eye. The treated eye (only one is lasered) was allowed to heal and the IOP stabilized after about six weeks. Tests were performed by topical administration of one drop of a 0.5% solution of-the test agent to the Ketamine anesthetized Rhesus monkey's eye. The IOP charge was recorded by an Alcon Applanation Phneumatonograph. The peak effect was recorded as a percentage change in the hypertensioned eye versus the IOP value of the same eye recorded at the same hour the previous day.

[2] = test system: Intraocular Pressure; assay: Normal Rabbit Model, IOP lowering after topical administration; assay type: in vivo, New Zealand albino rabbits; settings: Oryctolagus cuniculus, read-out: (B) 50uL 1% topical Normal Rabbit %IOP
Procedure: To determine the IOP reduction efficacy of the anti-glaucoma drugs of the invention in normal albino rabbits the following was done.
New Zealand albino rabbits (12) were acclimatized in restraining boxes for thirty minutes. Alcaine/ saline (1:5) was applied to the rabbit eyes and baseline IOP in mm Hg pressure were measured using an Alcon Laboratory Applanation Phneumatonograph. Then thirty minutes later, the coded test substance versus a coded saline control was administered as a 50 ul drop to one eye, six animals in each group. The treatment effects were measured as a function of time. Mean IOP and mean change in IOP for each hourly reading was recorded.
The effect cited is a peak percentage effect versus the external control test group.

[3] = 50uL 1% topical to one eye, peak percentage effect versus the external (saline) control group

Row | Compound | (A) 50uL 0.5% topical Laser-Monkey %IOP [1] [%] | change in vivo at 1 % [2, 3] [%] | change in vivo at 1 % ([2]; topical) [%]
1 | Clc1cccc(Cl)c1N=C1NCCN1 [2,6-Dichloro-N-2-imidazolidinylidene-benezamine, reference compound] | -32.0 | -13.9 | –
2 | Nc1ccc(Cl)c(N=C2NCCN2)c1Cl [2,6-Dichloro-N^1-(2-imidazolidinylidene)-1,3-benzenediamine hydrochloride] | – | – | 0
3 | Cl.Cl.Nc1cc(Cl)c(N=C2NCCN2)c(Cl)c1 [2,6-Dichloro-N^1-(2-imidazolidinylidene)-1,4-benzenediamine Dihydrochloride] | -21.0 | -1.3 | –
4 | CN(C)c1cc(Cl)c(N=C2NCCN2)c(Cl)c1 [2,6-Dichloro-N^1-(2-imidazolidinylidene)-N^4, N^4-dimethyl-1,4-benzenediamine Dihydrochloride] | – | – | -10.2
5 | CCOC(=O)c1cc(Cl)c(N=C2NCCN2)c(Cl)c1 [3,5-Dichloro-4-(2-imidazolidinylideneamino)-benzoic acid ethyl ester] | – | -5.6 | –
6 | O=C(O)c1cc(Cl)c(N=C2NCCN2)c(Cl)c1 [3,5-Dichloro-4-(2-imidazolidinylideneamino)-benzoic acid] | – | -4.5 | –
7 | Cl.Oc1cc(Cl)c(N=C2NCCN2)c(Cl)c1 [3,5-Dichloro-4-(2-imidazolidinylideneamino)-phenol Hydrochloride] | -23.0 | – | -7.4
8 | OCc1cc(Cl)c(N=C2NCCN2)c(Cl)c1 [3.5-Dichloro-4-(2-imidazolidinylideneamino)-benzenemethanol] | -17 | 0 | –
9 | N#Cc1cc(Cl)c(N=C2NCCN2)c(Cl)c1 [4-Cyano-2,6-dichloro-N-(2-imidazolidinylidene)-benzamine Hydrochloride] | – | -2.3 | –
10 | O=CNc1cc(Cl)c(N=C2NCCN2)c(Cl)c1 [N-[3,5-Dichloro-4-(2-imidazolidinylideneamino) -phenyl]-formamide Free Base] | -26.0 | -15.6 | –
11 | CC(=O)Nc1cc(Cl)c(N=C2NCCN2)c(Cl)c1.Cl [N-[3,5-Dichloro-4-(2-imidazolidinylideneamino)-phenyl]-acetamide Hydrochloride] | -4.0 | -19 | –
